From ChEMBL document CHEMBL3992567, “Discovery of Highly Potent 2-Sulfonyl-Pyrimidinyl Derivatives for Apoptosis Inhibition and Ischemia Treatment” (ACS Med Chem Lett, 2017)
The source made the active and inactive calls. No cut-off for these calls is given here. Residues, ends and D or L forms follow the SMILES beside them.

Key:
[1] = molecular target: T1, Succinate dehydrogenase [ubiquinone] iron-sulfur subunit, mitochondrial (Homo sapiens) (UniProt P21912); assay: Irreversible inhibition of SDHB in human U2OS cells over-expressing Bim assessed as inhibition of apoptosis preincubated for 1 hr followed by compound washout and doxycyclin addition to induce Bim protein expression measured after 24 hrs by Cell Titer-Glo assay; assay type: cell-based
T1 sequence (whole entry): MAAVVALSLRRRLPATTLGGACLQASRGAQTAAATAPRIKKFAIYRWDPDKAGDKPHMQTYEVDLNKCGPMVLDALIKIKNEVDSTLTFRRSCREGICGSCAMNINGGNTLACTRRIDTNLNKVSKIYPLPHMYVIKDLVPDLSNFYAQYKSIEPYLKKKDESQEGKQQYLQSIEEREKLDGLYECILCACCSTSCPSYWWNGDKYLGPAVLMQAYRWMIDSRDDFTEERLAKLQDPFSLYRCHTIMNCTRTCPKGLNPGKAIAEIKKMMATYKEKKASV

U2OS [2] = assay: Inhibition of mitochondrial-mediated apoptosis in human U2OS cells assessed as reduction in ROS level preincubated for 2 hrs followed by doxycyclin addition measured after 4 hrs by DCFH-DA dye based fluorescence assay; assay type: functional, cell-based
U2OS [3] = assay: Inhibition of mitochondrial-mediated apoptosis in human U2OS cells assessed as reduction in mitochondrial membrane potential loss at 1 uM preincubated for 1 hr followed by doxycyclin addition measured after 4 hrs by TMRM dye based confocal microscopic method; assay type: functional, cell-based
U2OS [4] = assay: Inhibition of mitochondrial-mediated apoptosis in human U2OS cells assessed as reduction in mitochondrial membrane potential loss at 10 uM preincubated for 1 hr followed by doxycyclin addition measured after 4 hrs by TMRM dye based confocal microscopic method; assay type: functional, cell-based
U2OS [5] = assay: Inhibition of apoptosis in human U2OS cells over-expressing Bim assessed as mitochondrial cytochrome c release at 20 uM after 1 hr in presence of doxycyclin by confocal microscopic method; assay type: functional, cell-based
[6] = Glutathione reactivity of the compound at 20 uM after 2 hrs by UPLC analysis
[7] = Lysine reactivity of the compound at 20 uM after 2 hrs by UPLC analysis
[8] = Cysteine reactivity of the compound at 20 uM after 2 hrs by UPLC analysis
U2OS [9] = assay: Inhibition of apoptosis in human U2OS cells over-expressing Bim assessed as mitochondrial cytochrome c release at 10 uM after 1 hr in presence of doxycyclin by confocal microscopic method; assay type: functional, cell-based
[10] = Glutathione reactivity of the compound in PBS buffer at 100 nM up to 35 mins by LC-MS/Ms analysis
Rattus norvegicus [11] = organism: Rattus norvegicus; assay: Protection against middle cerebral artery occlusion-induced transient focal cerebral ischemia in Sprague-Dawley rat assessed as reduction in brain infarct volume at 10 to 200 uM pretreated for 1 hr followed by reperfusion measured 24 hrs post MCAO by TTC staining based assay; assay type: functional
U2OS [12] = assay: Inhibition of mitochondrial-mediated apoptosis in human U2OS cells assessed as reduction in mitochondrial membrane potential loss at 100 nM preincubated for 1 hr followed by doxycyclin addition measured after 4 hrs by TMRM dye based confocal microscopic method; assay type: functional, cell-based
U2OS [13] = assay: Inhibition of mitochondrial-mediated apoptosis in human U2OS cells assessed as reduction in mitochondrial membrane potential loss at 3 nM preincubated for 1 hr followed by doxycyclin addition measured after 4 hrs by TMRM dye based confocal microscopic method; assay type: functional, cell-based
Rattus norvegicus [14] = organism: Rattus norvegicus; assay: Protection against middle cerebral artery occlusion-induced transient focal cerebral ischemia in Sprague-Dawley rat assessed as reduction in brain infarct volume at 50 to 200 uM pretreated for 1 hr followed by reperfusion measured 24 hrs post MCAO by TTC staining based assay; assay type: functional

With `CCCOc1cccc(Cn2cc(-c3cc(C(F)(F)F)nc(S(C)(=O)=O)n3)ccc2=O)c1` the inhibition [1] was “Active” and the inhibition (U2OS [2]) was “Active”.

With `CS(=O)(=O)c1nc(-c2ccc(=O)n(Cc3cccc(Cl)c3)c2)cc(C(F)(F)F)n1` the inhibition (U2OS [3]) was “Active”, the inhibition [1] was “Active” and the inhibition (U2OS [2]) was “Active”.

With `CS(=O)(=O)c1nc(-c2ccccc2)cc(C(F)(F)F)n1` the inhibition [1] was “Active”.

With `CS(=O)(=O)c1nc(-c2ccc(=O)n(Cc3ccccc3Cl)c2)cc(C(F)(F)F)n1` the inhibition [1] was “Active”.

With `CC(C)[C@H](NC(=O)OCc1ccccc1)C(=O)N[C@@H](C)C(=O)N[C@@H](CC(=O)O)C(=O)O` (HELM PEPTIDE1{[O=C(OCc1ccccc1)[*:2]].V.A.D}$$$$V2.0) the inhibition (U2OS [4]) was “inactive” and the inhibition (U2OS [5]) was “inactive”.

In the case of `CS(=O)(=O)c1nc(-c2cccs2)cc(C(F)(F)F)n1`, the Activity [6] is reported as “Active”, the Activity [7] is reported as “inactive” and the inhibition [1] is reported as “Active”. For the same molecule, the Activity [8] was “Active”.

In the case of `Cc1ccc(O)c(NC(=O)CCCS(=O)(=O)c2nc(-c3cccs3)cc(C(F)(F)F)n2)c1`, the inhibition (U2OS [9]) is reported as “Active”.

For `COc1ccc(Cn2cc(-c3cc(C(F)(F)F)nc(S(C)(=O)=O)n3)ccc2=O)cc1OC`, the Activity [6] was “Active”, the Activity [7] was “inactive” and the inhibition [1] was “Active”. The Activity [10] was “Active”, the Activity (Rattus norvegicus [11]) was “Active” and the inhibition (U2OS [2]) was “Active”. The inhibition (U2OS [12]) was “Active” and the Activity [8] was “Active”.

In the case of `COc1cccc(Cn2cc(-c3cc(C(F)(F)F)nc(S(C)(=O)=O)n3)ccc2=O)c1`, the inhibition [1] is reported as “Active” and the inhibition (U2OS [2]) is reported as “Active”.

In the case of `Cc1cc(-c2cccs2)nc(S(C)(=O)=O)n1`, the Activity [6] is reported as “inactive”, the Activity [7] is reported as “inactive” and the Activity [8] is reported as “inactive”.

For `COc1ccc(Cn2cc(-c3cc(C(F)(F)F)nc(S(C)(=O)=O)n3)ccc2=O)cc1`, the inhibition [1] was “Active”.

With `CCOC(=O)CCS(=O)(=O)c1nc(-c2cccs2)cc(C(F)(F)F)n1` the inhibition [1] was “Active”.

For `COc1ccc(Cn2cc(-c3cc(C(F)(F)F)nc(S(=O)(=O)CCCC(=O)NC45CC6CC(CC(C6)C4)C5)n3)ccc2=O)cc1OC`, the Activity [6] was “Active”, the inhibition (U2OS [13]) was “Active” and the Activity [7] was “inactive”. The inhibition [1] was “Active”, the Activity [10] was “Active” and the Activity (Rattus norvegicus [14]) was “Active”. For the same molecule, the Activity [8] was “Active”.

With `CS(=O)(=O)c1nc(-c2ccc(=O)n(Cc3ccccc3)c2)cc(C(F)(F)F)n1` the inhibition (U2OS [4]) was “Active”, the inhibition [1] was “Active” and the inhibition (U2OS [2]) was “Active”.

For `CS(=O)(=O)c1nc(-c2ccc(=O)n(Cc3ccc(Cl)cc3)c2)cc(C(F)(F)F)n1`, the inhibition (U2OS [3]) was “Active”, the inhibition [1] was “Active” and the inhibition (U2OS [2]) was “Active”.
